From patent US8173696B2, “Inhibitors of cysteine proteases and methods of use thereof” (Baylor University, priority 2007, dated 2012)
pIC50: −log10 of the molar value. Read-outs that look alike come from different tables or passages of the source.

Assays:
Human liver cathepsin L = molecular target: T1, Human liver cathepsin L (Homo sapiens, UniProt P07711); assay: Cathepsin L inhibition in vitro (Z-FR-AMC fluorescence); format: biochemical
T1 construct: from tissue; host or cells: human liver
Protocol: Human liver cathepsin L (1 nM) was incubated in 50 mM sodium acetate buffer, pH 5.5 containing 1 mM EDTA, 2 mM DTT, 0.001% (v/v) brij 35 with potential inhibitors at 20 different concentrations (from 0.05 nM to 50 μM) at 25° C. for 5 minutes before 100 μL substrate (benzyloxycarbonyl-L-phenylalanyl-L-arginyl-7-amido-4-methylcoumarin, abbreviated as Z-FR-AMC, 50 μM in final assay condition) was added to the enzyme-inhibitor mixture; total volume was 200 μL. Controls were performed using enzyme alone, substrate alone, and enzyme with DMSO. […] Spectra were taken at 3-sec intervals for 3 minutes. IC50 values were determined by non-linear regression analysis using vo(inh)=VMAX/{1+10(logIC50−x)*Hillslope} and Prism software (GraphPad).

Cat B = Cat B (Homo sapiens, UniProt P07858); assay: Cathepsin B inhibition in vitro; format: biochemical
Protocol: For in vitro cysteine protease inhibition determinations, a compound's effectiveness can be given by an IC50 value. In these assays, the enzyme to be inhibited (e.g., a cruzain or cruzipain, a rhodesain, a brucipain, a congopain, a falcipain, CPB2.8 Delta CTE, a cathepsin-L, cathepsin-B, a cathepsin-H, a cathepsin-K, a cathepsin-S) is first incubated with varying concentrations (about 20-50,000 nM) of a test compound. To this is added a short peptide substrate of the enzyme of 1 to 10 amino acids, usually a di- or tri-peptide substrate, which is labeled with either a fluorogenic or chromogenic moiety. An exemplary chromogenic moiety is p-nitro-anilide (pNA). […] Exemplary peptide substrates include Phe-Arg, Arg-Arg, Phe-Arg-X (X=Ala, Arg), and Phe-X-Ser-Arg-Gln (X=Arg, 4-aminomethyl-phenylalanine (Arm), 4-aminomethyl-N-isopropyl-phenylalanin-e (laf), 4-piperidinyl-alanine (Ppa) or 4-aminocyclohexyl-alanine (Aca)). Cleavage of the labeled substrate induces a chromogenic or fluorescent signal that is measured using spectrophotometer or a spectrofluorometer, respectively. Signals induced in the presence of varying concentrations of test compound are measured in comparison to a positive control of enzyme and substrate and a negative control of enzyme in diluent (e.g., DMSO). Spontaneous cleavage of substrate is measured in controls with substrate alone. IC50 values are determined graphically using compound inhibitor concentrations in the linear portion of a plot of inhibition versus log [I].

Cruzain = Cruzain (Trypanosoma cruzi, UniProt P25779); assay: biochemical; format: biochemical; settings: Table A; 0.1 nM cruzain, pH 5.50, 25° C., 10 μM Z-Phe-Arg-AMC
Sequence of Cruzain (P25779 123-467): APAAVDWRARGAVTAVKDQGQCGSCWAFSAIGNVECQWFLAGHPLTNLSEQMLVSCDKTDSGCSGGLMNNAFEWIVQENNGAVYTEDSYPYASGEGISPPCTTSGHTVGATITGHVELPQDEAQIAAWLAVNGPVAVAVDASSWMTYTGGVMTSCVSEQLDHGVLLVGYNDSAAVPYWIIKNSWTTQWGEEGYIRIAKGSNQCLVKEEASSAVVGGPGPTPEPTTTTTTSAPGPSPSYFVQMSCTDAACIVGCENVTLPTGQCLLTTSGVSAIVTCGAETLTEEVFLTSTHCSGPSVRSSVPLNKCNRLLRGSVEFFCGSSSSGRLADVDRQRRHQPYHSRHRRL
Protocol: Cruzain (0.1 nM) in 100 mM sodium acetate buffer (pH 5.50) containing 5 mM DTT was preincubated for 5 min at 25° C. with inhibitor.

cathepsin L [1] = assay: Inhibition of activated cathepsin L secreted in DU-145 cell conditioned media; format: cell-based; settings: compound 20 μM, replicate samples a-c
Protocol: (§1) A prostrate carcinoma derived cell line (DU-145) was maintained in free phenol red DMEM supplemented with 10% fetal bovine serum, 1% glutamine, 1% glutamax, 1% Penicillin-Streptomycin and 1 mM sodium pyruvate, at 37° C. in an atmosphere of 95% air/5% CO2. DU145 was plated at 4×10^6 cells/10 cm Petri dish for dense, super confluent density. These cultures were incubated for 3 days before collection. Twenty-four hours prior to harvesting, cells were fed with serum-free media or serum-free media containing inhibitors at a final concentration of 20 μM. On the day of harvesting, the serum-free medium was collected for assay of Cathepsin L activity secreted in the medium. The cells were rinsed in cold PBS (pH 7.2) and collected in cold PBS containing […]. The cells were lysed using a Sonicator (Misonix 3000) at medium setting with pauses at 0° C. for temperature equilibration. Then the homogenate was centrifuged at 13,000×g for 20 min and the supernatant saved. […] Fluorescence was measured in a Fluoro Max 2 (Jobin Yvon) spectrofluorometer at an excitation wavelength of 355 nm and an emission wavelength of 460 nm. The substrate is hydrolyzed by cathepsin L and to a smaller extent by cathepsin B, therefore the activity is referred to as cathepsin L+B activity. Data analysis was performed using Prism software (GraphPad version 4). Data corresponding to cathepsin L activity (after activation) in cell conditioned media in the presence of Compound 14 (20 μM) is summarized in Table 3 below. Data corresponding to cathepsin L activity (after activation) in cell conditioned media in the presence of Compound 27 (20 μM) is summarized in Table 4 below.

cathepsin L [2] = assay: Inhibition of activated cathepsin L in DU-145 cell lysates; format: cell-based; settings: DU-145 cell lysates preincubated for 24 h with compound, following removal of media, replicate samples a-c; for activity (cathepsin L activity after activation): control 6.93E−03; for cps (cathepsin L activity after activation): control 26950
Protocol: as §1, with “cell lysates preincubated for 24 h with” for “cell conditioned media in the presence of”, “14 and following the removal of media” for “14 (20 μM)”, “Table 5” for “Table 3”, “27 and following the removal of media” for “27 (20 μM)”, “Table 6” for “Table 4”

[3] = Table A, 1 nM human liver cathepsin L, pH 5.5, 25° C., 50 μM Z-FR-AMC, read-out: Cat L IC50

T1 sequence (P07711 114-333): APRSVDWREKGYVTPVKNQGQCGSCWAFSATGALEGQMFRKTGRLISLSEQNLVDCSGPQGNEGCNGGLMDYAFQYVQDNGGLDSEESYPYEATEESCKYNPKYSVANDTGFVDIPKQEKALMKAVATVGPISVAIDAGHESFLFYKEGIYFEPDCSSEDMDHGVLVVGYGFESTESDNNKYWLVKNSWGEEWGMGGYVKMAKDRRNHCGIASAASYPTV

pIC50 (Cruzain)	pIC50 (Human liver cathepsin L; [3])	Compound	further results
		CC/C(=N\NC(N)=S)c1cccc(Br)c1 [Compound 5, 3-Bromopropiophenone thiosemicarbazone]	pIC50 (Human liver cathepsin L; Table B, unit inferred, read-out: Cat L): < 5.00; pIC50 (Cat B; Table B, unit inferred, read-out: Cat B): < 4.30
6.07	5.24	CC/C(=N\NC(N)=S)c1cccc([N+](=O)[O-])c1 [Compound 6, 3-Nitropropiophenone thiosemicarbazone]	
	5.59	CC/C(=N\NC(N)=S)c1cccc(O)c1 [Compound 7, 1-(3-Hydroxyphenyl)-1-propanone thiosemicarbazone]	
5.44	5.79	CC/C(=N\NC(N)=S)c1cccc(N)c1 [Compound 8, 3-Aminopropiophenone thiosemicarbazone]	
7.10	4.79	NC(=S)N/N=C(\c1ccccc1)c1cccc(Br)c1 [Compound 13, Phenyl(3-bromophenyl) ketone thiosemicarbazone]	
7.77	6.21	NC(=S)N/N=C1\CCCc2ccc(Br)cc21 [Compound 21, 7-Bromo-1-tetralone thiosemicarbazone]	
6.68	9.00	NC(=S)N/N=C1\CCS(=O)(=O)c2ccc(Br)cc21 [Compound 23, 6-Bromo-1,1-dioxo-1-thiochroman-4-one thiosemicarbazone]	
6.09	6.15	NC(=S)N/N=C1\CCS(=O)(=O)c2c(Br)cc(Br)cc21 [Compound 24, 6,8-Dibromo-1,1-dioxo-1-thiochroman-4-one thiosemicarbazone]	
	5.20	NC(=S)N/N=C1\CCOc2ccccc21 [Compound 26]	
	5.30	NC(=S)N/N=C1\CCS(=O)(=O)c2ccccc21 [Compound 27]	activity (cathepsin L activity after activation) (cathepsin L [1]; control 1.50E−03, listed as 27a): 0.000101 µM/s; activity (cathepsin L activity after activation) (cathepsin L [1]; control 1.50E−03, listed as 27b): 9.46e-05 µM/s; activity (cathepsin L activity after activation) (cathepsin L [1]; control 1.50E−03, listed as 27c): 9.81e-05 µM/s; cps (cathepsin L activity after activation) (cathepsin L [1]; control 5848, listed as 27a): 393.7 cps; cps (cathepsin L activity after activation) (cathepsin L [1]; control 5848, listed as 27b): 367.5 cps; cps (cathepsin L activity after activation) (cathepsin L [1]; control 5848, listed as 27c): 381.1 cps; activity (cathepsin L activity after activation) (cathepsin L [2]; listed as 27a): 0.00308 µM/s; activity (cathepsin L activity after activation) (cathepsin L [2]; listed as 27b): 0.00255 µM/s; activity (cathepsin L activity after activation) (cathepsin L [2]; listed as 27c): 0.00275 µM/s; cps (cathepsin L activity after activation) (cathepsin L [2]; listed as 27a): 11990 cps; cps (cathepsin L activity after activation) (cathepsin L [2]; listed as 27b): 9918 cps; cps (cathepsin L activity after activation) (cathepsin L [2]; listed as 27c): 10690 cps
	< 5.00	CC(=O)C1=CCCc2ccccc21 [Compound 37, [1-(3,4-Dihydronaphthalenyl)]methyl ketone]	
	6.43	C=CC(=O)C1=CCCc2ccc(Br)cc21 [Compound 38]	
< 5.30	< 5.00	NC(=S)N/N=C1\CCC(c2ccc(Br)cc2)C1 (stereo not shown) [Compound 46]	
< 5.15	5.54	NC(=S)N/N=C1\CCCC(c2ccc(Br)cc2)C1 (stereo not shown) [Compound 47]	
< 4.77	5.61	NC(=S)N/N=C1\CCc2ccccc2O1 [Compound 48]	
	< 5.00	NC(=S)N/N=C1\CCc2ccccc21 [Compound 49]	
< 4.77	5.37	NC(=S)N/N=C1\CCc2ccc(Br)cc2C1 [Compound 69, 7-Bromo-2-tetralone thiosemicarbazone]	pIC50 (Cat B; Table A, read-out: Cat B IC50): > 4.30
5.35	4.96	NC(=S)N/N=C1\CCc2c(Br)cc(Br)cc2C1 [Compound 70, 5,7-Dibromo-2-tetralone thiosemicarbazone]	pIC50 (Cat B; Table A, read-out: Cat B IC50): < 4.30

Compound	pIC50 (Cruzain)	pIC50 (Human liver cathepsin L; [3])	further results
NC(=S)N/N=C1\CCCc2c(Br)cccc21 [Compound 20, 5-Bromo-1-tetralone thiosemicarbazone]	5.92	6.44	
